Assay results reported in patent US4524147A, “Uracil derivatives, process for preparing same, and pharmaceutical compositions comprising same” (Mitsui Toatsu Chemicals, Incorporated, priority 1981, dated 1985).
Structures can show the parent of a compound that is named as a salt.

Key:
[1] = tested on: adjuvant arthritis; experiment: Adjuvant arthritis test (hind paw swelling); type: in vivo, rats (SD strain, male); details: 5 mg/kg subcutaneous, nine times before and after injection of adjuvant; left hind paw volume; * P<0.05 vs control
Description: The adjuvant arthritis induced in rats by injection of a tubercle bacillus adjuvant is frequently used as an experimental model for rheumatoid arthritis in man.
Although the mechanism by which this phenomenon occurs is not completely elucidated, cellular immunity is known to play an important role. Employing this well-known adjuvant arthritis test, the same compounds of the present invention were further examined for immunomodulatory activity.
[Adjuvant arthritis test]
An adjuvant was prepared by suspending 0.4 mg of killed and dried cells of the human type tubercle bacillus (Mycobacterium tuberclosis) in 0.1 ml of liquid paraffin, and inoculated intradermally into the right hind paw of 8-weeks-old male rats of the SD strain. Each of the two compounds of the present invention was subcutaneously administered nine times before and after injection of the adjuvant. These compounds were dissolved or suspended in physiological saline containing 0.2% carboxymethyl cellulose and administered in an amount of 5 mg per kg of body weight. The volume of the left hind paw of each animal was daily measured from the day of inoculation of the adjuvant to the end of the test, and the calculated percent inhibition of swelling is shown in Table 2. For purposes of comparison, the results of an experiment with Levamisole hydrochloride are also given. The test results thus obtained were subjected to statistical analysis using the F.t test. The values marked with an asterisk (*) indicate that, when they were compared with the value of a control group treated solely with physiological saline containing 0.2% carboxymethyl cellulose, the differences were significant at P<0.05.

[2] = tested on: delayed hypersensitivity; experiment: Augmentation test of delayed hypersensitivity (picryl chloride, mouse ear thickness); type: in vivo, mice (ICR strain, male); details: 50 mg/kg oral, simultaneously with sensitization; 24 hours after challenge; average of 16 measurements of 8 animals; * P<0.05 vs control
From the text: These facts are more fully explained with reference to the following evaluation tests. A variety of experimental systems are being commonly used to test immunomodulatory activity in animals. Of such tests, the most typical one is an augmentation test of delayed hypersensitivity as shown below. […] L., and Ptak, W. "Contact and delayed hypersensitivity in the mouse I. Active sensitization and passive transfer," Immunology, 15, 405-416(1968)). In the following Evaluation Test 1, this experimental system was used to carry out an augmentation test of delayed hypersensitivity. [Augmentation test of delayed hypersensitivity] Male mice of the ICR strain, weighing approximately 30 g, were used in groups of eight. These animals were sensitized by shaving the hair on the abdomen and applying thereto a 3% solution of picryl chloride in a 4:1 mixture of olive oil and acetone. Simultaneously with this sensitization, each of two compounds of the present invention was dissolved or suspended in physiological saline containing 0.2% carboxymethyl cellulose and administered orally to the animals in a dose of 50 mg per kg of body weight. A control group was treated solely with physiological saline containing 0.2% carboxymethyl cellulose. Seven days after sensitization, delayed hypersensitivity was challenged by wrapping the tips of a forceps with pieces of felt, impregnating the felt with olive oil containing 1% picryl chloride, and pinching both ears of each animal. The thicknesses of the ears were measured before and 24 hours after the challenge, and the calculated percent increase of ear thickness (the average of 16 measurements made of the ears of 8 animals) is shown in Table 1. For purposes of comparison, the results of an experiment with Lavamisole hydrochloride are also given. The test results thus obtained were subjected to statistical analysis using the F.t test. The values marked with an asterisk (*) indicate that, when they were compared with the value of the control group, the differences were significant at P<0.05.

[3] = Test for acute oral toxicity; design: species or system mice (ddY strain; details: mouse, in vivo, 5 male ddY mice per group, observed for 7 days, estimated
Description: The toxicity of the active ingredients of some typical pharmaceutical composition of the present invention was examined in the following Evaluation Test 3.
[Test for acute oral toxicity]
Each of the compounds used in Evaluation Tests 1 and 2 was dissolved or suspended in physiological saline and administered orally to a group of 5 male mice of the ddY strain. The LD50 value of the compound was estimated by observing these animals for 7 days after administration.

SMILES	Percent inhibition of swelling as compared with control group (average of 16-20 days) [1]	Percent increase of ear thickness [2]	LD50 at 168 h [3]
c1ccc([C@H]2CN3CCSC3=N2)cc1 [Levamisole hydrochloride, reference compound]	19.8%	31.2%	200 to 300 mg/kg
Cc1cn(C(=O)C(=O)n2cc(C)c(=O)[nH]c2=O)c(=O)[nH]c1=O [drawing 5]	–	28.6%	–
O=C(C(=O)n1ccc(=O)[nH]c1=O)n1ccc(=O)[nH]c1=O [drawing 6]	41.4%	–	–
Cc1cn(C(=O)C(=O)n2cc(C)c(=O)[nH]c2=O)c(=O)[nH]c1=O [drawing 7]	29.9%	–	–
O=C(C(=O)n1ccc(=O)[nH]c1=O)n1ccc(=O)[nH]c1=O [drawing 4]	–	33.9%	–
